{"source": "patent US12201669B2", "about": "“Small molecule suppressors of APOE gene expression and cerebral vascular amyloid pathology” (Massachusetts Institute of Technology, priority 2021, dated 2025)", "key": {"[1]": {"tested_on": "APOE4/5×FAD mice", "details": "mouse, in vivo"}, "[2]": {"tested_on": "APOE", "details": "E4 pericytes, earlier work of the inventors; cited from earlier work"}, "[3]": {"tested_on": "APOE", "test": "APOE expression by qRT-PCR in APOE4/4 pericytes treated with cyclosporin analogs", "format": "cell-based, human", "details": "compared with cyclosporin A and FK506", "from_the_text": "FIGS. 2A-2D show APOE expression measured by qRT-PCR in APOE4/4 pericytes following treatment with Cyclosporin A (FIG. 2A), FK506 (FIG. 2B), Cyclosporin D (FIG. 2C), Cyclosporin H (FIG. 2D). One-way ANOVA with Bonferroni's Multiple Comparison test, 6 replicates per a timepoint.\nFK506 and cyclosporin A can reduce the expression of APOE in human pericytes and brain cells and reverse or prevent cerebrovascular pathologies associated with Alzheimer's Disease such as cerebral amyloid angiopathy. Both cyclosporine A and FK506 have immunosuppressant activity. […] Results showing APOE expression after APOE4 pericytes were treated with Cyclosporin analogs for two weeks are depicted in FIG. 1. Following treatment with Cyclosporin A, FK506, Cyclosporin D, Cyclosporin H, APOE expression was measured by qRT-PCR in APOE4/4 pericytes (see FIGS. 2A-2D)."}}, "data": [{"smiles": "C=CC[C@@H]1/C=C(\\C)C[C@H](C)C[C@H](OC)[C@H]2O[C@@](O)(C(=O)C(=O)N3CCCC[C@H]3C(=O)O[C@H](/C(C)=C/[C@@H]3CC[C@@H](O)[C@H](OC)C3)[C@H](C)[C@@H](O)CC1=O)[C@H](C)C[C@@H]2OC", "note": "[FK506]", "values": [{"measurement": "toxicity compared to cyclosporine treated mice", "setting": "[1]", "result": "less toxicity"}]}, {"smiles": "O=C1C=CC(=O)C2=C1C1c3ccccc3C2c2ccccc21", "note": "[INCA6]", "values": [{"measurement": "APOE gene expression", "setting": "[2]", "result": "reduction"}, {"measurement": "APOE protein", "setting": "[2]", "result": "reduction"}]}, {"smiles": "C/C=C/C[C@@H](C)[C@@H](O)[C@H]1C(=O)N[C@@H](C(C)C)C(=O)N(C)CC(=O)N(C)[C@@H](CC(C)C)C(=O)N[C@@H](C(C)C)C(=O)N(C)[C@@H](CC(C)C)C(=O)N[C@@H](C)C(=O)N[C@H](C)C(=O)N(C)[C@@H](CC(C)C)C(=O)N(C)[C@@H](CC(C)C)C(=O)N(C)[C@@H](C(C)C)C(=O)N1C", "note": "[cyclosporin D]", "values": [{"measurement": "kinetics of APOE expression reduction", "setting": "[3]", "result": "faster kinetics"}, {"measurement": "potency in reducing APOE expression (able to reduce at lower doses)", "setting": "[3]", "result": "significantly more potent"}]}]}
